Results: patent US20200009173A1, “TRIAZOLE-CONTAINING MACROLIDES AND OPHTHALMIC USES THEREFOR” (Tetard, Inc., priority 2017, published 2020)
Values after ≈ are worked out from the molar mass of the structure shown. Like-named read-outs stand apart in the source and are kept apart here.

Tests used:
log P = type: physicochemical
Protocol: Formulated compounds are tested for their transverse diffusive ability through the membrane. Diffusion through biological membranes is directly correlated to the formulation excipients, its physical state (suspension, solution, emulsion, etc.) and its log P. […] For compounds with log P>3, the compound typically permeates the lipid epithelium of the cornea, only to be hindered by the hydrophilic stroma. For an indication like blepharitis, high corneal concentrations achieved with repeat dosing will result in a drug depot, acting like a sustained release system.

Peptostreptococcus spp. = test: MIC, Peptostreptococcus spp.; type: cell-based; conditions: N = 10
MSRA = test: MICs of solithromycin and comparator drugs, MSRA (30 species); type: cell-based
Description: EXAMPLE. The formulations described herein show overall higher potency against ocular pathogens than commercial standards.
MICs (μg/ml) of Solithromycin and Comparator Drugs against Bacterial Species

Neisseria gonorrhoeae = test: MIC, Neisseria gonorrhoeae; type: cell-based; conditions: N = 34
Haemophilus influenzae = test: MIC, Haemophilus influenzae (100 strains); type: cell-based

Structure (SMILES): CC[C@H]1OC(=O)[C@@](C)(F)C(=O)[C@H](C)[C@@H](O[C@@H]2O[C@H](C)C[C@H](N(C)C)[C@H]2O)[C@](C)(OC)C[C@@H](C)C(=O)[C@H](C)[C@H]2N(CCCCn3cc(-c4cccc(N)c4)nn3)C(=O)O[C@]12C [CEM-101, solithromycin]
- logP (log P): 4.2
- MIC Range (Peptostreptococcus spp.): ≤0.03-0.25^ μg/mL
- MIC50 (Peptostreptococcus spp.; Peptostreptococcus): 0.06 µg/mL (≈ 0.071 µM)
- MIC90 (Peptostreptococcus spp.; Peptostreptococcus): 0.25 µg/mL (≈ 0.296 µM)
- MIC50 (MSRA): 0.03 µg/mL (≈ 0.0355 µM)
- MIC90 (MSRA): 64 µg/mL (≈ 75.7 µM)
- I (intermediate susceptibility) (MSRA; 30 species): 0%
- NS (not susceptible) (MSRA; 30 species): 30%
- S (susceptible) (MSRA; 30 species): 70%
- MIC Range (Neisseria gonorrhoeae): 0.03 to 0.25 µg/mL
- MIC50 (Neisseria gonorrhoeae; Neisseria gonorrhoeae): 0.06 µg/mL (≈ 0.071 µM)
- MIC90 (Neisseria gonorrhoeae; Neisseria gonorrhoeae): 0.12 µg/mL (≈ 0.142 µM)
- MIC90 (Haemophilus influenzae; Haemophilus influenzae, 100 strains, read-out: MIC90): 2 µg/mL (≈ 2.37 µM)
- MIC50 (Haemophilus influenzae; Haemophilus influenzae, N = 100): 1 µg/mL (≈ 1.18 µM)
- MIC90 (Haemophilus influenzae; N = 100): 2 µg/mL (≈ 2.37 µM)
- MIC Range (Haemophilus influenzae; N = 100): 0.12 to 4 µg/mL
